Results taken from article PMC8881512 (Nature Communications, 2022).
Several values for one entry are separate records, joined by “and”; a condition that tells them apart may be missing. Equal values may be shown once.

What was measured:
MCF-7 cells = experiment: Colony-formation assay, MCF-7 (wild-type and ESR1 knock-in); assay type: cell-based, human; details: for Rel. colony (colony-formation assay): MCF-7, VT02956 (2 μM), VT02484 (2 μM) or Palbociclib (0.1 μM) alone or in combinations, Fig.6d; for Relative colony formation: 1 μM 4OHT, 0.2 μM Fulvestrant, 2 μM VT02956, 2 μM VT02484, Fig.6g
Method: […] The drugs were refreshed every 2–4 days. The colonies were then fixed with 4% paraformaldehyde for 15 min and stained with 0.1% crystal violet in 20% methanol solution for quantification.

[1] = system: YAP target, ESR1 and ERα target gene mRNA in T47D cells; experiment: qPCR gene expression in T47D cells; assay type: cell-based, human; details: 2 µM for 2 days; for ANKRD1 mRNA (qPCR, relative to DMSO) / LATS2 mRNA (qPCR, relative to DMSO) / VGLL3 mRNA (qPCR, relative to DMSO): sheet Fig.s7c (Supplementary Fig. 7d); for ESR1 mRNA (qPCR, relative to DMSO) / GREB1 mRNA (qPCR, relative to DMSO) / TFF1 mRNA (qPCR, relative to DMSO): sheet Fig.s7e (Supplementary Fig. 7f)
Excerpt: PCR primer pairs included

[2] = system: YAP/TAZ target, ESR1 and ERα target gene mRNA in BTO-02; experiment: qPCR gene expression in breast tumour organoids BTO-02; assay type: cell-based, human; details: BTO-02, 2 μM for 2 days; for ANKRD1 mRNA (qPCR, relative to DMSO) / CTGF mRNA (qPCR, relative to DMSO) / CYR61 mRNA (qPCR, relative to DMSO) / VGLL3 mRNA (qPCR, relative to DMSO): Fig.5g; for ESR1 mRNA (qPCR, relative to DMSO) / GREB1 mRNA (qPCR, relative to DMSO) / TFF1 mRNA (qPCR, relative to DMSO): Fig.5h;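 on all read-outs here: relative mRNA abundance computed by the ΔCt approach from SYBR-based real-time qPCR, with GAPDH as internal housekeeping reference for normalisation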
LATS1 = biological target: T1, LATS1 (Homo sapiens, UniProt O95835); experiment: In vitro LATS1 kinase inhibition assay (HTRF); assay type: biochemical; details: for IC50: 3000 μM ATP, n = 2; for LATS1 kinase activity: Fig.5b
T1 construct: purchased Signalchem
T1 sequence (O95835 1-1130): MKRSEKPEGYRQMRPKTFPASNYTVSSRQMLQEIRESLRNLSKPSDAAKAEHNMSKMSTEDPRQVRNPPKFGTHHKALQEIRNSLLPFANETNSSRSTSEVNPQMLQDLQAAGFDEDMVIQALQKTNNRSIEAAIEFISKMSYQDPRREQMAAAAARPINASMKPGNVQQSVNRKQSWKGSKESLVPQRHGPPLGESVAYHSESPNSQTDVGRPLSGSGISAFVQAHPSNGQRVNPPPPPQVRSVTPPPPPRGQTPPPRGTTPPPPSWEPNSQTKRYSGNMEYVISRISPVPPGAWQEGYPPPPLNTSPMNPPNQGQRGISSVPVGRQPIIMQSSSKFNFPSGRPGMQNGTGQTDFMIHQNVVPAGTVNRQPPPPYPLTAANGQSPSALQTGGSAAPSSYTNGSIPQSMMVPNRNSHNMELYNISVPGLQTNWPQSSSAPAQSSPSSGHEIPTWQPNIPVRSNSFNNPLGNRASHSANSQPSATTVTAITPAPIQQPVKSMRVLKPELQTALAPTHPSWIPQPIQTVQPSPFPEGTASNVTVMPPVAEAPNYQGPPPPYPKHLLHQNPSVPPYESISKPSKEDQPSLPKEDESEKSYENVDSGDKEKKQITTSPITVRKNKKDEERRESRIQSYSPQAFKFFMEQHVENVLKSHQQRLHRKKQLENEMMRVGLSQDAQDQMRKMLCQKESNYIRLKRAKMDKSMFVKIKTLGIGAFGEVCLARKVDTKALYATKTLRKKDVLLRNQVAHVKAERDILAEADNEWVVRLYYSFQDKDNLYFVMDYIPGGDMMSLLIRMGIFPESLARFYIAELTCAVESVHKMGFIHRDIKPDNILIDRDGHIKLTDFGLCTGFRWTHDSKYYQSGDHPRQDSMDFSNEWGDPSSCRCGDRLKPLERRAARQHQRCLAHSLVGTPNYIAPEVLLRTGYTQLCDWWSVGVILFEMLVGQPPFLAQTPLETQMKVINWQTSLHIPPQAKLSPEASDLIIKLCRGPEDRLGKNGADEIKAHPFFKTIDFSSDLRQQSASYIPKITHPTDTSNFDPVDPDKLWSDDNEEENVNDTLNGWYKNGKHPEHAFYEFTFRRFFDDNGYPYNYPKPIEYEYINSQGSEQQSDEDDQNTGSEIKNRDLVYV
Method: The kinase activity of LATS1 and LATS2 were performed based on an adapted and optimised HTRF Kinase Binding assay (Cisbio). Briefly, the concentration-response curves with compound concentration range of 10,000 to 0.17 nM with 3-fold serial dilution and 1X Kinase enzymatic buffer (Cisbio), 1.2 nM LATS1 or LATS2 kinases (Signalchem), 0.5 μM biotinylation labelled YAP peptide (Vivace) were dispensed into 384-well microplates by automated digital dispenser Echo/POD with the final DMSO concentration in all wells at 0.5%. To start the enzymatic reaction, 3000 μM ATP (for LATS1) or 6000 μM ATP (for LATS2) were added using multidrop in a 10-μl volume and incubated for 90 min at 30 °C. Subsequently, 10 μl of HTRF KinEASE detection buffer (Cisbio) containing 31.25 nM acceptor conjugate (streptavidin-XL665) and 1:100 donor conjugate (TK antibody labelled with Eu^3+-Cryptate) mixture were added and incubated at RT for 60 min, and the fluorescence emission at two different wavelengths was measured (615 nm and 665 nm) on Envision. […] The inhibition was calculated by the formula, inhibition % = (HIGH − ratio) × 100/ (High − LOW). HIGH control stands for 0.5% DMSO with kinase and LOW control stands for 0.5% DMSO without kinase. The data was analysed by Xlfit software. The IC50 values were determined by fitting to a standard four-parameter logistic using GraphPad Prism.

[3] = system: VGLL3, ESR1, YAP/TAZ target and ERα target gene mRNA in MCF-7 cells; experiment: qPCR gene expression in MCF-7 cells;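 on all read-outs here: SYBR Green real-time PCR, mRNA abundance computed by the ΔCt approach with GAPDH transcript as the internal normalisation control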; details: MCF-7, 2 µM for 2 days; for ANKRD1 mRNA (qPCR, relative to DMSO) / LATS2 mRNA (qPCR, relative to DMSO) / VGLL3 mRNA (qPCR, relative to DMSO): sheet Fig.s7b (Supplementary Fig. 7c); for ESR1 mRNA (qPCR, relative to DMSO) / GREB1 mRNA (qPCR, relative to DMSO) / TFF1 mRNA (qPCR, relative to DMSO): sheet Fig.s7d (Supplementary Fig. 7e)
T47D cells = experiment: Colony-formation assay, T47D (wild-type and ESR1 knock-in); assay type: cell-based; details: 1 μM 4OHT, 0.2 μM Fulvestrant, 2 μM VT02956, 2 μM VT02484, 14 days, Fig.6h
Method: For colony formation, cells were plated into 12-well plate with a constant density at the start date of treatment in triplicate with the indicated compounds and further cultured for 10 days (MCF-7) or 14 days (T47D). The drugs were refreshed every 2–4 days. The colonies were then fixed with 4% paraformaldehyde for 15 min and stained with 0.1% crystal violet in 20% methanol solution for quantification.

SMILES	Rel. colony (colony-formation assay) (MCF-7 cells)	Relative colony formation (MCF-7 cells; MCF-7 ERa D538G knock-in)	Relative colony formation (MCF-7 cells; MCF-7 ERa Y537S knock-in)	Relative colony formation (MCF-7 cells; MCF-7 WT)	ANKRD1 mRNA (qPCR, relative to DMSO) [1]	LATS2 mRNA (qPCR, relative to DMSO) [1]	VGLL3 mRNA (qPCR, relative to DMSO) [1]	ESR1 mRNA (qPCR, relative to DMSO) [1]	GREB1 mRNA (qPCR, relative to DMSO) [1]	TFF1 mRNA (qPCR, relative to DMSO) [1]	ANKRD1 mRNA (qPCR, relative to DMSO) [2]	CTGF mRNA (qPCR, relative to DMSO) [2]	CYR61 mRNA (qPCR, relative to DMSO) [2]	VGLL3 mRNA (qPCR, relative to DMSO) [2]	ESR1 mRNA (qPCR, relative to DMSO) [2]	GREB1 mRNA (qPCR, relative to DMSO) [2]	TFF1 mRNA (qPCR, relative to DMSO) [2]	IC50 (LATS1; in vitro) [nM]	ANKRD1 mRNA (qPCR, relative to DMSO) [3]	LATS2 mRNA (qPCR, relative to DMSO) [3]	also measured
CCN(CC)c1nc(-c2ccncc2)nc2c(-c3ccc(Cl)cc3)cccc12 [VT02484]	0.94 and 1.05 and 1.08	1.12 and 1.04 and 1.03	0.96 and 0.91 and 1.03	0.96 and 0.89 and 1.02	0.9511 and 0.8877 and 0.7788	1.062 and 1.257 and 1.047	1.036 and 0.9545 and 1.103	1.074 and 0.8288 and 1.02	1.002 and 1.049 and 0.9359	1.09 and 1.077 and 1.0923	1.2497 and 1.0358 and 0.9991	1.029 and 0.9638 and 0.9395	1.1798 and 0.914 and 0.9308	1.193 and 1.051 and 1.05	1.0519 and 1.0384 and 1.0263	1.1915 and 1.2181 and 1.0643	1.1521 and 1.0774 and 1.1271	> 10000	0.9375 and 1.0569 and 0.9783	1.073 and 0.8452 and 1.234	inhibition towards LATS (LATS1; in vitro, LATS1 and LATS2 (Fig. 5b, c)): showed no inhibition towards LATS; VGLL3 mRNA (qPCR, relative to DMSO) [3]: 1.127 and 1.023 and 0.9343; ESR1 mRNA (qPCR, relative to DMSO) [3]: 0.9424 and 1.008 and 0.8622; GREB1 mRNA (qPCR, relative to DMSO) [3]: 1.01 and 0.9864 and 0.9917; TFF1 mRNA (qPCR, relative to DMSO) [3]: 1.063 and 1.169 and 0.8376; Relative colony formation (T47D cells; T47D ERa Y537S knock-in): 0.96 and 0.91 and 1.03; Relative colony formation (T47D cells; T47D WT): 1.12 and 0.89 and 0.98
NCC1CCN(c2nc(-c3ccncc3)nc3c(C#CCO)cccc23)CC1 [VT02956]	0.41 and 0.36 and 0.33	0.39 and 0.37 and 0.34	0.41 and 0.42 and 0.45	0.32 and 0.27 and 0.35	151.05 and 152.548 and 126.932	2.078 and 1.8081 and 2.057	25.7059 and 26.0713 and 24.6224	0.1433 and 0.1061 and 0.1464	0.2102 and 0.1984 and 0.2087	0.06716 and 0.07329 and 0.06992	120.896 and 131.016 and 139.426	10.8797 and 10.8657 and 10.8616	13.1424 and 13.7264 and 12.9668	31.437 and 32.235 and 31.533	0.1649 and 0.1855 and 0.1729	0.3079 and 0.3261 and 0.3014	0.0863 and 0.0862 and 0.094	0.76	39.7272 and 41.5085 and 42.3168	3.381 and 2.554 and 3.922	LATS1 kinase activity (LATS1; Conc. 0.00016935 (µM)): 83.5285 and 93.8174; LATS1 kinase activity (LATS1; Conc. 0.00050805 (µM)): 56.9778 and 63.1654; LATS1 kinase activity (LATS1; Conc. 0.00152416 (µM)): 31.2859 and 31.2259; LATS1 kinase activity (LATS1; Conc. 0.00457247 (µM)): 3.14 and 1.742; VGLL3 mRNA (qPCR, relative to DMSO) [3]: 57.2973 and 54.8732 and 38.032; ESR1 mRNA (qPCR, relative to DMSO) [3]: 0.1783 and 0.1761 and 0.1829; GREB1 mRNA (qPCR, relative to DMSO) [3]: 0.3188 and 0.332 and 0.2804; TFF1 mRNA (qPCR, relative to DMSO) [3]: 0.2697 and 0.3023 and 0.214; Relative colony formation (T47D cells; T47D ERa Y537S knock-in): 0.41 and 0.42 and 0.48; Relative colony formation (T47D cells; T47D WT): 0.39 and 0.48 and 0.51
